Data set [1] has as its target T1, CYP2B6 (Homo sapiens, UniProt P20813).
T1 sequence (P20813 1-491): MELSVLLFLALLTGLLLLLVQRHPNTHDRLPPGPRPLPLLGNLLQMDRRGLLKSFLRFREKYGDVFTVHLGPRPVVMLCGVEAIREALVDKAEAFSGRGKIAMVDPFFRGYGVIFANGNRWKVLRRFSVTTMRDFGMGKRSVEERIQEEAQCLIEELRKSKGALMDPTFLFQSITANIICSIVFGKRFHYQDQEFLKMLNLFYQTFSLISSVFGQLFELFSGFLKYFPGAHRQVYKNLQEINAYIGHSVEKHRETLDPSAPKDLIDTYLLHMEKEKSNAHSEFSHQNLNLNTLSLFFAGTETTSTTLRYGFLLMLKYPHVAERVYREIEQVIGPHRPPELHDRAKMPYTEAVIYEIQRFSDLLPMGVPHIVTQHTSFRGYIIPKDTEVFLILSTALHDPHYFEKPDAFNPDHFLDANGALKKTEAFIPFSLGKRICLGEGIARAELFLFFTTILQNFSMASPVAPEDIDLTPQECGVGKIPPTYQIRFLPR
To be noted: human, pH 7.4.

A further data set deals with T2, CYP2B1 (Rattus norvegicus, UniProt P00176).
T2 sequence (P00176 1-491): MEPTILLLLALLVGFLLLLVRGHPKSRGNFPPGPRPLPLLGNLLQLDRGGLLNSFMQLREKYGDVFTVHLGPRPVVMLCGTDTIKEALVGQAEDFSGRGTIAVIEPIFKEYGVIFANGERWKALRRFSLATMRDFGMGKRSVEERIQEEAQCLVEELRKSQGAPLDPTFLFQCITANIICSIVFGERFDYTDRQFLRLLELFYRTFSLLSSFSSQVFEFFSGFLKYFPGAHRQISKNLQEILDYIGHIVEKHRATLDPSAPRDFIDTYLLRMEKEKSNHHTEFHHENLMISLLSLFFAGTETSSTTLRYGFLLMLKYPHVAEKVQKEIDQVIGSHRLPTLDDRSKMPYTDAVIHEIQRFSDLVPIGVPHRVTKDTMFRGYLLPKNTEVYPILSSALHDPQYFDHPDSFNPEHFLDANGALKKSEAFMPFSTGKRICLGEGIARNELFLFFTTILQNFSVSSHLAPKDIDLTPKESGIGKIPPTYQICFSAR
Briefly: in vitro.

A further data set has as its target T3, CYP2C8 (Homo sapiens, UniProt P10632).
T3 sequence (P10632 1-490): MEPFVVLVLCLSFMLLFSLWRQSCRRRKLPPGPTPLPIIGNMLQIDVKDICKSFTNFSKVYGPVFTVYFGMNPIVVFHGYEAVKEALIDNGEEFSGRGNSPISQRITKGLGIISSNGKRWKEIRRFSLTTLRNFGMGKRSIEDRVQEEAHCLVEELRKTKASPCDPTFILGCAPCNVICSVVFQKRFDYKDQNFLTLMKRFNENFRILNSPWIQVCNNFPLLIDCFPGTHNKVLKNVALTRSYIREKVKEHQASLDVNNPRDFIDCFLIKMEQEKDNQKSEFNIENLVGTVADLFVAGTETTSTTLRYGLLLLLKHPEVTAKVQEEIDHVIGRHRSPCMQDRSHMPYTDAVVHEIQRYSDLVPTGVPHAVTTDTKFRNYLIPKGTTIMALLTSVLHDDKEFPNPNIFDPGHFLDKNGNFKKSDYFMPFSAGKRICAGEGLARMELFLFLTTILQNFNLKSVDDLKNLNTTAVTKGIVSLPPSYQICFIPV
Briefly: in vitro. Conditions: pH 7.4.

The next data set has as its target CYP2C9 (Homo sapiens, UniProt P11712). The data set can be described thus: in vitro.
Another data set has as its target CYP3A4 (Homo sapiens, UniProt P08684). The data set can be described thus: Regioselectivity and inter-/intramolecular KIE for 4-methylanisole (Table 15). Format: in vitro ADME.
Data set [2] concerns the target T1, CYP2B6. Described as above. Format: in vitro ADME.
A further data set has as its target T4, CYP1A2 (Homo sapiens, UniProt P05177).
T4 sequence (P05177 1-516): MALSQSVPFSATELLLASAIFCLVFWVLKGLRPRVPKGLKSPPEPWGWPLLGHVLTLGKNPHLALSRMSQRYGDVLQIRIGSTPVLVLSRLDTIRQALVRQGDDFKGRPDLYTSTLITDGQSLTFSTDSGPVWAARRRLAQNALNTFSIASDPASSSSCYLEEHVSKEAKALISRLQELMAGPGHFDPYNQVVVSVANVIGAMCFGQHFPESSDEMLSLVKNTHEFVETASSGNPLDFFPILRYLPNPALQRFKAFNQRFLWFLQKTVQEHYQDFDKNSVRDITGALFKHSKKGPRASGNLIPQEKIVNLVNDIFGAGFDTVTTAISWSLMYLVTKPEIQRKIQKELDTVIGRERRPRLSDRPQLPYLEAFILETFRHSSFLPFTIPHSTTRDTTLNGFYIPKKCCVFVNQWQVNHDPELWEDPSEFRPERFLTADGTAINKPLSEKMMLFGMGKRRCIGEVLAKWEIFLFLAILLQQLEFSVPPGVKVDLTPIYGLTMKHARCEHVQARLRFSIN
Described as above. The data set is classed as in vitro ADME.

The next data set deals with various CYP enzymes. Conditions: mean over seven enzymes.
The mark [3] stands for this setting: pH 7.4, Regioselectivity BzH:Arom.
The mark [4] stands for this setting: pH 7.4, Regioselectivity BzH:ODAlk.

Marks after values point to notes of the source that are not given here.

Chain of CYP3A4 (P08684 whole entry): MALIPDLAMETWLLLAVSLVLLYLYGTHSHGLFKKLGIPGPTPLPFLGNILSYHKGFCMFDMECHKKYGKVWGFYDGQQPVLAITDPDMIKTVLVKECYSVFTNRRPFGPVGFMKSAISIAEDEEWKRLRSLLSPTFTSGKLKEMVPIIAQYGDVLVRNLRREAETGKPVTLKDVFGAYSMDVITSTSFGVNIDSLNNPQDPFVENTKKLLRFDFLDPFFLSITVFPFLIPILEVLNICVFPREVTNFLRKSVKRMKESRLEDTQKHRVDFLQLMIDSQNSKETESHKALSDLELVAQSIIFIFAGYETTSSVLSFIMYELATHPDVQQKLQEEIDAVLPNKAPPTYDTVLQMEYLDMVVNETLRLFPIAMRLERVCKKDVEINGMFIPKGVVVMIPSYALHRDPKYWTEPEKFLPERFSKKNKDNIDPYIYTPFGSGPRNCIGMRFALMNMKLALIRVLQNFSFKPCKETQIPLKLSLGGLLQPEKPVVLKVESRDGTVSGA
Chain of CYP2C9 (P11712 whole entry): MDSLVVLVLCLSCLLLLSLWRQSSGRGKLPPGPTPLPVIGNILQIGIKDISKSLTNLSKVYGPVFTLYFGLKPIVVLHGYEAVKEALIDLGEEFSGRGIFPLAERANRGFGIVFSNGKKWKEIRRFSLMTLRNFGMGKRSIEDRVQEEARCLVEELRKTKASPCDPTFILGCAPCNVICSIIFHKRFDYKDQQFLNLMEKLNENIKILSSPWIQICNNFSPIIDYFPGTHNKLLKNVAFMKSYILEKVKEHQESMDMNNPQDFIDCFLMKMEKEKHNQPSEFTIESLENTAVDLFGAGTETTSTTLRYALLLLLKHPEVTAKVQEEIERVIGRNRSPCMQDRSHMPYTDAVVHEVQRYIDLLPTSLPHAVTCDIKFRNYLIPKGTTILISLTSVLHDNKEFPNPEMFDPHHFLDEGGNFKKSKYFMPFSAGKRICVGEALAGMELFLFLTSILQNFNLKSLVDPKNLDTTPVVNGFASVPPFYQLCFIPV

Consider `COc1ccccc1C` [o-Methylanisole, o-methylanisole], for which, on CYP2B6 [1], the “INTER KIE (combined intermolecular competitive KIE)” value is 10.43; the “Intramolecular KIE (kH/kD)” value is on record as 6.78; the “Metabolite profile, o-CR” value turned out to be 56 Mol-%; the “Metabolite profile, o-MBA” value worked out at 29 Mol-%. On CYP2B6 [1], the “P, calculated primary KIE” value is 7.8; the “Ratio ODAlk:Arom” value is 0.3; the “S, calculated secondary KIE” value is 1.15; the “nmol 4M3MPh” value came to 2.8 nmol. On CYP2B6 [1], the “nmol TP” value stood at 19 nmol, the “nmol o-CR” value is listed as 10.7* nmol and the “nmol o-MBA” value is 5.5* nmol. Further, the selectivity ratio at CYP2B1 (setting [3]) turned out to be 0.31. For the same compound, on CYP2B1 (setting [4]), the selectivity ratio worked out at 1.2. Also, the selectivity ratio at CYP2C8 came to 1. For the same compound, on CYP2C9 (setting [3]), the selectivity ratio was found to be 1.6. In addition, the selectivity ratio at CYP2C9 (setting [4]) amounted to 2.5.

Take `COc1ccc(C)cc1` [p-Methylanisole, p-methylanisole]: at CYP3A4 (CYP3A4 (Table 15)), the “Intermolecular KIE” value is 2.76 and the “Intramolecular KIE” value worked out at 5.27. Also, on CYP3A4 (CYP3A4, benzylic oxidation vs O-dealkylation), the “δΔG^†” value came out at 1.61 kcal/mol. Besides, on CYP2B6 [2] (CYP2B6 (Table 15)), the “Intermolecular KIE” value is recorded as 7.60 and the “Intramolecular KIE” value is listed as 4.58. Besides, the “δΔG^†” value at CYP2B6 [2] (CYP2B6, benzylic oxidation vs O-dealkylation) was 0.86 kcal/mol. Also, on CYP1A2 (CYP1A2 (Table 15)), the “Intermolecular KIE” value stood at 5.94 and the “Intramolecular KIE” value amounted to 3.79. Moreover, at CYP1A2 (CYP1A2, benzylic oxidation vs O-dealkylation), the “δΔG^†” value is 1.82 kcal/mol. Moreover, on CYP2B6 [1], the “INTER KIE (combined intermolecular competitive KIE)” value came out at 6.8; the “Intramolecular KIE (kH/kD)” value is listed as 3.74; the “P, calculated primary KIE” value was 4.6; the “S, calculated secondary KIE” value was 1.22. For the same compound, at CYP2B6 [1], the “nmol p-CR” value is on record as 2.10* nmol, the “nmol p-MBA” value is listed as 7.0* nmol and the “nmol total TP” value came out at 9.1 nmol. For the same compound, in the data set with various CYP enzymes, the “Benzylic/O-Dealkylation, Mean” value is on record as 10.60 (5.85); the “Intermolecular KIE, Mean” value amounted to 4.59; the “Intramolecular KIE, Mean” value was 4.20.

(Values after US6643591B1, “Use of computational and experimental data to model organic compound reactivity in cytochrome P450 mediated reactions and to optimize the design of pharmaceuticals” (University of Pittsburgh, priority 1998, dated 2003).)
